According to patent US7880010B2, “Crystalline forms of a dimethylphenyl compound” (Theravance, Inc., priority 2006, dated 2011):

Target: T1, human β2 adrenergic receptor (endogenous, BEAS-2B cells) (Homo sapiens, UniProt P07550)
T1 construct: using a cell line expressing endogenous levels of the β2 adrenergic receptor; host or cells: BEAS-2B human lung epithelial cell line
Assay: Whole-cell cAMP Flashplate assay with lung epithelial cell line (BEAS-2B)
Type: cell-based
Procedure: In this assay, the agonist potency and intrinsic activity of a test compound were determined using a cell line expressing endogenous levels of the β2 adrenergic receptor.
On the day of the assay, cells were rinsed with PBS, lifted by scraping with 5 mM EDTA in PBS, and counted. Cells were pelleted by centrifugation at 1,000 rpm and re-suspended in stimulation buffer pre-warmed to 37° C. at a final concentration of 600,000 cells/mL. Cells were used at a final concentration of 100,000 to 120,000 cells/well in this assay. […] Test compounds were tested in the assay at 11 different concentrations, ranging from 10 μM to 10 pM. Reactions were incubated for 10 min at 37° C. and stopped by addition of 100 μL of ice-cold detection buffer. Plates were sealed, incubated over night at 4° C. and counted the next morning in a Topcount scintillation counter (Packard BioScience Co., Meriden, Conn.). […] Data were analyzed by nonlinear regression analysis with the GraphPad Prism Software package (GraphPad Software, Inc., San Diego, Calif.) using the 4-parameter model for sigmoidal dose-response.

T1 sequence (P07550 whole entry): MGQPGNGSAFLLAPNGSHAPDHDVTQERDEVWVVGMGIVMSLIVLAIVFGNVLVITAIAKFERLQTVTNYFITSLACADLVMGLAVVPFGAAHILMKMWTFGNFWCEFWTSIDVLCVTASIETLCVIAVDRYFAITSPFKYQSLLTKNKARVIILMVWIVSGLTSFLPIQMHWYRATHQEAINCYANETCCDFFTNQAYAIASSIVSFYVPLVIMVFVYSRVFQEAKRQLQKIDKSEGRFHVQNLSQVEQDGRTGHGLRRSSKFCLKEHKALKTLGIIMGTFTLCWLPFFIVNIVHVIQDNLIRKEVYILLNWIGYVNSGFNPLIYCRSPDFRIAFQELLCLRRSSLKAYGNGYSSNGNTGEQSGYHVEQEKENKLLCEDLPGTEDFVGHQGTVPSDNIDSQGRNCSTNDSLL

Cc1cc(NC(=O)CCN2CCC(OC(=O)Nc3ccccc3-c3ccccc3)CC2)c(C)cc1CNC[C@H](O)c1ccc(O)c(NC=O)c1 [compound of formula I, biphenyl-2-ylcarbamic acid 1-[2-(4-{[(R)-2-(3-formylamino-4-hydroxyphenyl)-2-hydroxyethylamino]methyl}-2,5-dimethylphenylcarbamoyl)ethyl]-piperidin-4-yl ester]
EC50 (cAMP): < 10 nM
intrinsic activity (compared with full β2 agonist isoproterenol (1.0)): greater than 0.3
